According to patent US10822299B2, “Compounds and methods for hematopoietic regeneration” (The Regents of the University of California, priority 2016, dated 2020):

Legend:
[1] = target: T1, PTPRS catalytic domains (D1D2) (Homo sapiens, UniProt Q13332); assay: In vitro phosphatase assay (modified Malachite Green Assay); assay type: biochemical; conditions: for IC50: 50 nM PTPRS, 100 uM Tyr Phosphopeptide, 15 min preincubation
T1 construct: The two interacellular catalytic domains (D1D2) of PTPRS were cloned into a pET28a vector; made in house; host or cells: E. coli BL21
T1 sequence (Q13332 1304-1948 limits assumed): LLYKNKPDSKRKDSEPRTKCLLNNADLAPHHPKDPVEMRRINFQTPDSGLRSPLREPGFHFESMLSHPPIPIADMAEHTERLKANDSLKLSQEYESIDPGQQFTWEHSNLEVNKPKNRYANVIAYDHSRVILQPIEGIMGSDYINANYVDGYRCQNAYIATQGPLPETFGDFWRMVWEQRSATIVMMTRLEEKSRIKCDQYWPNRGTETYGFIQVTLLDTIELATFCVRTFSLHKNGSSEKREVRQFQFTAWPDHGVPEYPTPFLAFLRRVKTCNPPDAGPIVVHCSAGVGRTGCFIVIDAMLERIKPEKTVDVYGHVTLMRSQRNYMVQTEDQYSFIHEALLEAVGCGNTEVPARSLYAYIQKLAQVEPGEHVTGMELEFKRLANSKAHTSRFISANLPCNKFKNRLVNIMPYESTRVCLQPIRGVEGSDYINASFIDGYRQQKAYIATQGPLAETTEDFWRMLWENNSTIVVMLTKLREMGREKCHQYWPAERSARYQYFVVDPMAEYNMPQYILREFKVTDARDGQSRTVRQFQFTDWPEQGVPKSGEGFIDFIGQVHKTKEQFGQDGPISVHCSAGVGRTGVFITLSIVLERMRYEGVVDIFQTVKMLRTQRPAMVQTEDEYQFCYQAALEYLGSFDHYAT
Description: The two interacellular catalytic domains (D1D2) of PTPRS were cloned into a pET28a vector and overexpressed in E. coli BL21 and purified as described in Jeon T J, et al. Structure of the Catalytic Domain of Protein Tyrosine Phosphatase Sigma in the Sulfenic Acid Form. Molecules and Cells. 2013; 36(1):55-61. doi:10.1007/s10059-013-0033-x. Enzymatic activity of PTPRS was assayed using a modified version of the Malachite Green Assay (described in Lorenz U. Protein Tyrosine Phosphatase Assays. Current protocols in immunology/edited by John E Coligan. [et al]. 2011; CHAPTER:Unit-11.7. doi:10.1002/0471142735.im1107s93) and the Tyrosine Phosphatase Assay Kit (Promega Coorperation). Unless stated otherwise, standard assays were carried out using 50 nM PTPRS protein in 1× Buffer (10 mM Tris, 5 mM MgCl2, 10 mM NaCl, 0.02% Tween) and Tyr Phosphopeptide as substrate (100 uM for FIG. 1 and 50-1200 uM in FIG. 2). Catalytic domains D1D2 were preincubated with the test compound or control for 15 min in the wells of a 96 well plate before the addition of 100 uM Tyr Phosphopeptide (DADA(pY)LIPQQG).
For IC50 determination, rates normalized relative to uninhibited controls (DMSO) were plotted against compound concentration and fitted using a four-parameter nonlinear regression curve fit ((y=[(A−D) (1+{xC−1}B)−1]+D), (Prism 6.0, Graphpad Software). For mechanism studies and determination of the enyzme's Km and Vmax, data were analyzed using a nonlinear regression fit according to classical Mechaelis-Menten kinetics model Y=Vmax*X/(Km+X) (Prism 6.0, Graphpad Software).

Rac1 [2] = assay: Rac1 activation assay (G-LISA); assay type: cell-based; conditions: cells incubated 2 minutes at 1 and 10 μg/mL
Description: Cell cultures were incubated with each tested compound for 2 minutes at concentrations of 1 and 10 μg/mL, after which the cells were tested for Rac1 activation using a G-LISA activation assay. The cells were lysed and the lysates introduced into wells containing Rac-GTP-binding protein, then sequentially incubated with anti-Rac1 antibody and a horseradish peroxidase-linked secondary antibody. The amount of horseradish peroxidase was then quantitated to evaluate the Rac1 activation potency of each compound studied.

Rac1 [3] = assay: Rac1 signaling in HSCs (BM KSL cells expressing Rac1 GTP, FIG. 1); assay type: cell-based
Source text: (§1) A) CFU-GEMMs produced by TSF media vs. TSF+GJ001 (p=0.001). B) Percentage of BM KSL cells expressing Rac1 GTP (p=0.008). C) Survival of mice irradiated with 750 cGy followed by treatment with DJ001 or vehicle (p=0.0007). D) % BM KSL cells (blue) and % ckit^+sca-1^−lin^− progenitors (gray) at day+21 in irradiated mice.

irradiated mice = assay: Survival and HSC regeneration of irradiated mice; assay type: in vivo; conditions: for Survival of irradiated mice: irradiated mice (DJ001: 750 cGy, lethal dose)
Source text: as §1

[4] = system: hematopoietic colony formation; assay: Hematopoietic colony formation; assay type: cell-based

| SMILES | IC50 [1] | Rac1 Activation (Rac1 [2]) | also measured |
| --- | --- | --- | --- |
| Cc1cccc(C(=O)/C=C\Nc2cccc(C(F)(F)F)c2)c1 [DJ033] | 950 nM | – | – |
| COc1cccc(N/C=C\C(=O)c2ccccc2)c1 [DJ005] | – | no | – |
| CN(C)S(=O)(=O)c1cccc(N/C=C\C(=O)c2ccccc2)c1 [DJ016] | – | no | – |
| O=C(/C=C\Nc1cccc(-c2ccccc2)c1)c1ccccc1 [DJ007] | – | no | – |
| Cc1cc(C)cc(N/C=C\C(=O)c2ccccc2)c1 [DJ011] | – | yes | – |
| O=C(/C=C\Nc1cc(C(F)(F)F)cc(C(F)(F)F)c1)c1ccccc1 [DJ030] | 1830 nM | – | – |
| O=C(/C=C\Nc1cccc([N+](=O)[O-])c1)c1ccccc1 [DJ001] | 1430 nM | yes | Mechanism of inhibition (substrate titration of PTPσ, Vmax and Km) ([1]; substrate titration, Michaelis-Menten fit): classical noncompetitive inhibitor; Rac1 signaling in HSCs (Rac1 [3]): activates Rac1 signaling in HSCs; HSC regeneration in irradiated mice (irradiated mice; irradiated mice): accelerates HSC regeneration in irradiated mice; Survival of irradiated mice (irradiated mice): dramatically increases mice survival following lethal dose irradiation |
| CC(C)(C)N/C=C\C(=O)c1ccccc1 [DJ019] | – | no | – |
| O=C(/C=C\NCc1ccco1)c1ccccc1 [DJ018] | – | no | – |
| O=C(/C=C\Nc1cccc(C(F)(F)F)c1)c1ccccc1 [DJ003] | 1060 nM | yes | Survival of irradiated mice (irradiated mice): improves survival of irradiated mice; Hematopoietic colony formation [4]: increases hematopoietic colony formation |
| O=C(c1ccccc1)c1ccccc1Nc1cccc([N+](=O)[O-])c1 [DJ027] | 910 nM | – | – |
| O=C(/C=C\Nc1ccccc1)c1ccccc1 [DJ013] | – | yes | – |
| CN(C)c1cccc(N/C=C\C(=O)c2ccccc2)c1 [DJ008] | – | no | – |
| COc1cc(N/C=C\C(=O)c2ccccc2)cc(OC)c1 [DJ012] | – | yes | – |
| O=C(/C=C\Nc1cccc(F)c1)c1ccccc1 [DJ002] | – | no | – |
| CC(C)(C)[Si](C)(C)Oc1cccc(N/C=C\C(=O)c2ccccc2)c1 [DJ014] | – | yes | – |
| O=C(/C=C\Nc1cccc(O)c1)c1ccccc1 [DJ015] | 1390 nM | yes | – |
| Cc1cccc(N/C=C\C(=O)c2ccccc2)c1 [DJ004] | – | yes | – |
| O=C(/C=C\Nc1cc(F)cc(F)c1)c1ccccc1 [DJ009] | 1370 nM | yes | – |
| CCCCN/C=C\C(=O)c1ccccc1 [DJ017] | – | no | – |
| CC(=O)c1cccc(N/C=C\C(=O)c2ccccc2)c1 [DJ006] | 3030 nM | no | – |
